Data reported in the supplement of paper PMC11208160.

Test: recombinant UMI read abundance after kanamycin selection (control-corrected) (log10(CPM+1)); higher = more efficient recombination; extreme values may be limits of the assay; sequences stand for … in AGTGCAGAGAAAATCGGCCAGTTTTCTCTGCCTGCAGTCCGCATGCCGTGGGACCCCTTGGGTTCTAACCTGTTGCCTAGATTTATGCAGCGGACTGCCTTTCTCCCAAAGTGATAAACCGG…AGGTTGGTTTCACT; site = the 11-nt donor
Procedure, shortened: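 In a pooled Escherichia coli screen for the IS621 bridge recombinase, donor and donor-binding-loop pairs were each placed with a 12-nt UMI on a plasmid bearing a promoterless kanamycin gene. This library was co-electroporated with a target plasmid encoding a fixed target and T7-inducible recombinase, and cells were plated either on IPTG (0.07 mM) plus kanamycin or without selection, in two replicates each. Recombinant UMIs were PCR-amplified across the donor–target junction and sequenced, and counts were converted to CPM, averaged over replicates, scaled by control-derived factors and reported as log10(CPM+1).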

Row | Sequence | recombinant UMI read abundance (log10)
1 | TATGCGGCATGGACCGGTTTTCCCGGTAATCCGTATTTGAT (site TATGCGGCTAT) | 0.581
2 | TATGCTACATGGACCGGTTTTCCCGGTAATCCGTATTTGGC (site TATGCTACTGC) | 0.253
3 | TATGGGCCATGGACCGGTTTTCCCGGTAATCCGTATTTGCT (site TATGGGCCTAG) | 0
4 | TATGGTACATGGACCGGTTTTCCCGGTAATCCGTATTTGGC (site TATGGTACTGC) | 1.67
5 | TATGTACCATGGACCGGTTTTCCCGGTAATCCGTATTTGGT (site TATGTACCTAC) | 0.011
6 | TATGTCTCATGGACCGGTTTTCCCGGTAATCCGTATTTGCC (site TATGTCTCTGG) | 2.6
7 | TATTAGGCATGGACCGGTTTTCCCGGTAATCCGTATTTGTG (site TATTAGGCTCA) | 0.459
8 | TATTAGGCATGGACCGGTTTTCCCGGTAATCCGTATTTGTG (site TATTCGGCTCA) | 0.00717
9 | TATTAGGCATGGACCGGTTTTCCCGGTAATCCGTATTTGTG (site TATTGGGCTCA) | 0
10 | TATTAGGCATGGACCGGTTTTCCCGGTAATCCGTATTTGTG (site TATTTGGCTCA) | 0.0156
11 | TATTATCCATGGACCGGTTTTCCCGGTAATCCGTATTTGCT (site AATTATCCTAG) | 0.494
12 | TATTATCCATGGACCGGTTTTCCCGGTAATCCGTATTTGCT (site CATTATCCTAG) | 0
13 | TATTATCCATGGACCGGTTTTCCCGGTAATCCGTATTTGCT (site GATTATCCTAG) | 0
14 | TATTATCCATGGACCGGTTTTCCCGGTAATCCGTATTTGCT (site TATTATCCTAG) | 0.622
15 | TATTATGCATGGACCGGTTTTCCCGGTAATCCGTATTTGGA (site AATTATGCTTC) | 0.364
16 | TATTATGCATGGACCGGTTTTCCCGGTAATCCGTATTTGGA (site CATTATGCTTC) | 0.525
17 | TATTATGCATGGACCGGTTTTCCCGGTAATCCGTATTTGGA (site GATTATGCTTC) | 0.00418
18 | TATTATGCATGGACCGGTTTTCCCGGTAATCCGTATTTGGA (site TATTATGCTTC) | 0.177
19 | TATTCGCCATGGACCGGTTTTCCCGGTAATCCGTATTTGGG (site TATTCGCCTCC) | 0.0547
20 | TATTGACCATGGACCGGTTTTCCCGGTAATCCGTATTTGCG (site TATTGACCTCG) | 0.00685
21 | TATTGGACATGGACCGGTTTTCCCGGTAATCCGTATTTGAC (site AATTGGACTGT) | 0
22 | TATTGGACATGGACCGGTTTTCCCGGTAATCCGTATTTGAC (site CATTGGACTGT) | 0.701
23 | TATTGGACATGGACCGGTTTTCCCGGTAATCCGTATTTGAC (site GATTGGACTGT) | 0.0156

Row | Sequence | recombinant UMI read abundance (log10)
24 | TATTGGACATGGACCGGTTTTCCCGGTAATCCGTATTTGAC (site TATTGGACTGT) | 1.68
25 | TATTTCCCATGGACCGGTTTTCCCGGTAATCCGTATTTGTG (site TATTTCCCTCA) | 0.213
26 | TATTTCGCATGGACCGGTTTTCCCGGTAATCCGTATTTGTG (site TATTTAGCTCA) | 0.00938
27 | TATTTCGCATGGACCGGTTTTCCCGGTAATCCGTATTTGTG (site TATTTCGCTCA) | 0.00881
28 | TATTTCGCATGGACCGGTTTTCCCGGTAATCCGTATTTGTG (site TATTTGGCTCA) | 0
29 | TATTTCGCATGGACCGGTTTTCCCGGTAATCCGTATTTGTG (site TATTTTGCTCA) | 0.00403
30 | TATTTGCCATGGACCGGTTTTCCCGGTAATCCGTATTTGTG (site TATTTGACTCA) | 0.0205
31 | TATTTGCCATGGACCGGTTTTCCCGGTAATCCGTATTTGTG (site TATTTGCCTCA) | 0.0197
32 | TATTTGCCATGGACCGGTTTTCCCGGTAATCCGTATTTGTG (site TATTTGGCTCA) | 0.00691
33 | TATTTGCCATGGACCGGTTTTCCCGGTAATCCGTATTTGTG (site TATTTGTCTCA) | 0.0226
34 | TATTTGGCATGGACCGGTTTTCCCGGTAATCCGTATTTGAG (site TATTTGGCTCA) | 0.0138
35 | TATTTGGCATGGACCGGTTTTCCCGGTAATCCGTATTTGAG (site TATTTGGCTCC) | 0.00558
36 | TATTTGGCATGGACCGGTTTTCCCGGTAATCCGTATTTGAG (site TATTTGGCTCG) | 0.012
37 | TATTTGGCATGGACCGGTTTTCCCGGTAATCCGTATTTGAG (site TATTTGGCTCT) | 0.00868
38 | TATTTGGCATGGACCGGTTTTCCCGGTAATCCGTATTTGTA (site TATTTGGCTAA) | 0.00533
39 | TATTTGGCATGGACCGGTTTTCCCGGTAATCCGTATTTGTA (site TATTTGGCTCA) | 0.0148
40 | TATTTGGCATGGACCGGTTTTCCCGGTAATCCGTATTTGTA (site TATTTGGCTGA) | 0
41 | TATTTGGCATGGACCGGTTTTCCCGGTAATCCGTATTTGTA (site TATTTGGCTTA) | 0.00725
42 | TATTTGGCATGGACCGGTTTTCCCGGTAATCCGTATTTGTT (site TATTTGGCTAA) | 0.17
43 | TATTTGGCATGGACCGGTTTTCCCGGTAATCCGTATTTGTT (site TATTTGGCTCA) | 0.0085
44 | TATTTGGCATGGACCGGTTTTCCCGGTAATCCGTATTTGTT (site TATTTGGCTGA) | 0
45 | TATTTGGCATGGACCGGTTTTCCCGGTAATCCGTATTTGTT (site TATTTGGCTTA) | 0
46 | TCAAATGCATGGACCGGTTTTCCCGGTAATCCGTATTTGCC (site TCAAATGCTGG) | 0

Row | Sequence | recombinant UMI read abundance (log10)
47 | TCAAGGACATGGACCGGTTTTCCCGGTAATCCGTATTTGCA (site TCAAGGACTTG) | 1.86
48 | TCAAGGCCATGGACCGGTTTTCCCGGTAATCCGTATTTGGT (site TCAAGGCCTAC) | 0.00348
49 | TCACCGACATGGACCGGTTTTCCCGGTAATCCGTATTTGGA (site TCACCGACTTC) | 0.0438
50 | TCACGCCCATGGACCGGTTTTCCCGGTAATCCGTATTTGCT (site TCACGCCCTAG) | 2.1
51 | TCAGAGACATGGACCGGTTTTCCCGGTAATCCGTATTTGTG (site TCAGAGACTCA) | 1.03
52 | TCAGAGACATGGACCGGTTTTCCCGGTAATCCGTATTTGTG (site TCAGAGACTCC) | 0.353
53 | TCAGAGACATGGACCGGTTTTCCCGGTAATCCGTATTTGTG (site TCAGAGACTCG) | 1.44
54 | TCAGAGACATGGACCGGTTTTCCCGGTAATCCGTATTTGTG (site TCAGAGACTCT) | 0.205
55 | TCAGAGCCATGGACCGGTTTTCCCGGTAATCCGTATTTGCG (site TCAGAGACTCG) | 0.00993
56 | TCAGAGCCATGGACCGGTTTTCCCGGTAATCCGTATTTGCG (site TCAGAGCCTCG) | 0.295
57 | TCAGAGCCATGGACCGGTTTTCCCGGTAATCCGTATTTGCG (site TCAGAGGCTCG) | 0.00861
58 | TCAGAGCCATGGACCGGTTTTCCCGGTAATCCGTATTTGCG (site TCAGAGTCTCG) | 2.36
59 | TCAGAGTCATGGACCGGTTTTCCCGGTAATCCGTATTTGCG (site TCAGAGACTCG) | 0.877
60 | TCAGAGTCATGGACCGGTTTTCCCGGTAATCCGTATTTGCG (site TCAGAGCCTCG) | 0.625
61 | TCAGAGTCATGGACCGGTTTTCCCGGTAATCCGTATTTGCG (site TCAGAGGCTCG) | 0.0319
62 | TCAGAGTCATGGACCGGTTTTCCCGGTAATCCGTATTTGCG (site TCAGAGTCTCG) | 3
63 | TCAGTACCATGGACCGGTTTTCCCGGTAATCCGTATTTGTG (site TCAGTACCTCA) | 0.023
64 | TCAGTAGCATGGACCGGTTTTCCCGGTAATCCGTATTTGAT (site TCAGTAGCTAT) | 2.12
65 | TCAGTATCATGGACCGGTTTTCCCGGTAATCCGTATTTGCG (site ACAGTATCTTG) | 0
66 | TCAGTATCATGGACCGGTTTTCCCGGTAATCCGTATTTGCG (site TCAGTATCTCG) | 1.85
67 | TCAGTCCCATGGACCGGTTTTCCCGGTAATCCGTATTTGGT (site TCAGTCCCTAC) | 0
68 | TCATAGACATGGACCGGTTTTCCCGGTAATCCGTATTTGCG (site TCAAAGACTCG) | 0.629
